Measured values reported in paper PMC10702189, “Tetrazine Glycoconjugate for Pretargeted Positron Emission Tomography Imaging of trans-Cyclooctene-Functionalized Molecular Spherical Nucleic Acids” (ACS Omega, 2023).

Columns and labels:
[1] = Ex vivo biodistribution in healthy Balb/cAnNrj mice
Method: (§1) Animal studies were approved by the national Project Authorization Board in Finland (licenses: ESAVI/12132/04.10.07/2017 and ESAVI/8648/2020) and were carried out in compliance with EU Directive 2010/EU/63 on the protection of animals used for scientific purposes. Healthy female Balb/cAnNrj mice (9–14 weeks old, 19 weeks old for fasting studies) were used for experiments with [^18F]FDG-Tz. Female Rj:Athymic-Foxn1^nu/nu mice (8–10 weeks old) bearing subcutaneous HER2-expressing HCC1954 tumors were used for pretargeted and control preclicked experiments with [^18F]TCO-MSNA, detailed information for the mice preparation was described earlier.[59] Animals were housed in individually ventilated cages under a 12 h light/dark cycle with ad libitum access to water and food unless otherwise stated. Animals were anesthetized with isoflurane (induction 4–5%, maintenance 1.5–2.5%, 0.4 L/min O2) and sacrificed by cervical dislocation after applying cardiac puncture for blood collection.
For [^18F]FDG-Tz ex vivo evaluation, the mice were sacrificed at 15 (n = 6), 30 (n = 4), and 60 min (n = 2) postinjection. [^18F]FDG-Tz distribution at 15 min postinjection was also studied in animals after fasting (n = 3, 4 h fasting prior to injection, water available ad libitum). Radiolabeled compound was administrated via the tail vein (1.8–11.4 MBq in 50–170 μL). For all experiments involving MSNA ex vivo measurements were performed after 60 min PET/CT imaging.
After sacrifice, tissue samples from organs of interest were dissected and weighed. Radioactivity was measured with a gamma counter (Triathler 3″; Hidex, Turku, Finland); the percentage injected radioactivity dose per gram of tissue (%ID/g) was calculated, corrected with the remaining radioactivity in the cannula, tail, and the syringe and decay-corrected to the time of injection.

[2] = Radioactivity distribution in blood components after i.v. injection in healthy mice; type: in vivo; settings: for Proportion of intact tracer in plasma: radio-HPLC
Method: To measure the radioactivity binding to blood cells, the blood obtained by cardiac puncture was placed into a lithium heparin tube, mixed according to the manufacturer’s instructions, and placed on ice. The blood sample was centrifuged at 4 °C for 5 min at 2118 × g. The plasma was separated by pipetting, and blood cells and plasma radioactivities were measured with a 1480 Wizard gamma counter (PerkinElmer/Wallac, Turku, Finland).
To determine the radioactivity portion bound to plasma proteins, plasma was mixed with an equal volume of acetonitrile and centrifuged at 14000 × g for 2 min at r.t. The radioactivity of both the supernatant and the protein pellet was measured with Wizard.
To determine the portion of intact tracer in plasma, a sample of deproteinized plasma supernatant was diluted with 0.1% TFA in water and analyzed with radio-HPLC.[60]

[3] = test system: HER2-expressing HCC1954 tumors; assay: PET/CT imaging (pretargeted, preclicked, tracer alone) in HCC1954 tumor-bearing mice; type: in vivo; settings: HCC1954 tumor-bearing female mice, 60 min postinjection
Method: as §1, with “collection. […]” for “collection.”
Image analysis was performed with Carimas software (version 2.10, Turku PET Centre, Turku, Finland). CT scans were utilized as an anatomical reference combined with the radioactivity signal from PET images. […] Standardized uptake values (SUV) were calculated, corrected with the remaining radioactivity in the cannula, tail, and syringe, and decay-corrected to the time of injection. […]

[4] = In vivo dynamic PET/CT imaging in healthy Balb/cAnNrj mice; settings: dynamic PET
Method: as §1
For in vivo [^18F]FDG-Tz studies, four mice were injected with 4.0–4.8 MBq in 50–80 μL volume via the tail vein. Animals were imaged with Molecubes β-cube (PET) and X-cube (CT) (MOLECUBES NV, Ghent, Belgium) for 60 min and reconstructed into time frames 30 × 10, 15 × 60, 4 × 300 s, and 2 × 600 s. For pretargeted experiments as well as control imaging with preclicked [^18F]TCO-MSNA, Inveon Multimodality PET/CT (Siemens Medical Solutions, Knoxville, TN, USA) was used to perform dynamic PET with 6 × 10, 4 × 60, and 11 × 300 s time frames. For pretargeted imaging, TCO-MSNA (50 μL, 2.5 nmol of TCO) was injected 20 min prior to [^18F]FDG-Tz (63 ± 17 μL) administration via the tail vein. For all experiments two animals were imaged at the same time under isoflurane anesthesia. Mice were sacrificed immediately after imaging for ex vivo evaluation.
Image analysis was performed with Carimas software (version 2.10, Turku PET Centre, Turku, Finland). CT scans were utilized as an anatomical reference combined with the radioactivity signal from PET images. Regions of interest (ROIs) within the selected organs were defined in three dimensions. Blood pool results were obtained from the heart left ventricle cavity; tumor ROIs were drawn excluding the fluid-filled tumor core (Figure S13). Standardized uptake values (SUV) were calculated, corrected with the remaining radioactivity in the cannula, tail, and syringe, and decay-corrected to the time of injection.

O=C(CCON=C[C@H]([18F])[C@@H](O)[C@H](O)[C@H](O)CO)NCc1ccc(-c2nncnn2)cc1 [[^18F]FDG-Tz]
Biodistribution difference between fasted and nonfasted animals ([1]; 15 min postinjection, 4 h fasting): no statistically significant difference | Organ accumulation in awake versus isoflurane anesthetized animals ([1]; 60 min after i.v. injection): trend of lower accumulation | Blood radioactivity ([1]; i.v., 60 min postinjection): 0.9 ± 0.3 %ID/g | Brain uptake ([1]; i.v., 60 min postinjection): 0.08 ± 0.03 %ID/g | Gallbladder radioactivity ([1]; i.v., 60 min postinjection): 7.0 ± 0.7 %ID/g | Kidneys radioactivity ([1]; i.v., 60 min postinjection): 1.2 ± 0.4 %ID/g | Liver radioactivity ([1]; i.v., 60 min postinjection): 3.2 ± 1.0 %ID/g | Tibia bone radioactivity (defluorination) ([1]; i.v., 60 min postinjection): 0.26 ± 0.04 %ID/g | Blood cell binding of radioactivity ([2]; 15 min postinjection): 37.6% ± 3.0 | Plasma protein binding of radioactivity ([2]; 15 min postinjection): 9.1% ± 3.5 | Blood cell binding of radioactivity ([2]; 60 min postinjection): 58.1% | Plasma protein binding of radioactivity ([2]; 60 min postinjection): 22.7% | Proportion of intact tracer in plasma ([2]; 60 min postinjection): 52% | Proportion of intact tracer in plasma ([2]; first time point (15 min, n = 3)): 93.7% ± 5.1 | Tumor SUV [3]: 0.16 ± 0.04 SUV | Heart SUV ([4]; 0.6 min): 5.06 ± 4.25 SUV | Blood SUV ([4]; 0.8 min): 5.26 ± 2.69 SUV | Brain SUVpeak ([4]; 0.8 min): 0.33 ± 0.20 SUV | Liver SUV ([4]; 4.5 min): 5.63 ± 1.11 SUV | Blood SUV ([4]; 60 min): 0.43 ± 0.06 SUV | Brain SUV ([4]; 60 min): 0.05 ± 0.01 SUV | Heart SUV ([4]; 60 min): 0.41 ± 0.05 SUV | Liver SUV ([4]; 60 min): 2.00 ± 0.57 SUV
